From patent EP1614420A2, “Treatment of hypertension, angina and other disorders using (-) amlodipine” (Sepracor Inc., priority 1992, dated 1993)

Columns and labels:
[1] = test system: K+-depolarized isolated guinea pig ileal segment; assay: Cardiovascular calcium antagonism, guinea pig ileum (in vitro); assay type: cell-based; conditions: inhibition of contractile response to added calcium (20 µg/ml of CaCl), Ca-free physiological salt solution, 37° C, reference agents; for IC100: Cavia porcellus, read-out: ED100
Excerpt: Cardiovascular Calcium Antagonism, Guinea Pig Ileum (in vitro):

[2] = test system: potassium-depolarized rat aorta; conditions: in vitro; cited from earlier work
β-adrenergic = conditions: L-form versus D-enantiomer; cited from earlier work

SMILES	IC100 [1] [µg/mL]	ED100 [1] [µg/mL]	other results
CN1CCC(=C2c3ccccc3C=Cc3ccccc32)CC1 [cyproheptadine]	0.025	–	–
CCOC(=O)C1=C(COCCN)NC(C)=C(C(=O)OC)C1c1ccccc1Cl (single isomer, unassigned; isomer 3) [(-) isomer, 3-ethyl 5-methyl (-)-2-[(2-aminoethoxy)methyl]-4-(2-chlorophenyl)-1,4-dihydro-6-methyl-3,5-pyridine-dicarboxylate]	–	–	activity relative to the racemic mixture in antagonizing calcium-induced constriction [2]: twice as active as the racemic mixture
C(=C\c1ccccc1)/CN1CCN(C(c2ccccc2)c2ccccc2)CC1 [cinnazrizine]	–	1	–
CN(C)CCOC(c1ccccc1)c1ccccc1 [diphenhydramine]	1	–	–
CC(C)NC[C@H](O)COc1cccc2ccccc12	–	–	times more potent than the D-enantiomer (β-adrenergic): 100 times
Fc1ccc(C(c2ccc(F)cc2)N2CCN(C/C=C/c3ccccc3)CC2)cc1 [flunarizine]	0.1	–	–
CC(C)[N+]1(C)[C@@H]2CC[C@H]1CC(OC(=O)C(CO)c1ccccc1)C2.[Br-] (stereo partly shown) [ipratropium bromide]	–	>2	–
COc1ccc(Cc2nccc3cc(OC)c(OC)cc23)cc1OC [papaverine]	4	–	–
CC(COc1ccccc1)NC(C)C(O)c1ccc(O)cc1 (stereo not shown) [isoxuprine]	–	4	–
CC(CN1c2ccccc2Sc2ccccc21)N(C)C (stereo not shown) [promethazine]	0.25	–	–
